# Data: ChEMBL document CHEMBL1201862, “PubChem BioAssay data set” (2004)
# Activity calls are given as the source filed them.
# What was measured:
# [1] = molecular target: Eukaryotic translation initiation factor 4H (Homo sapiens, UniProt Q15056); test: eIF4H binding inhibition – biochemical, uHTS, fluorescence polarization, translation initiation inhibitor project, primary screen (AID 2012)
# [2] = molecular target: T1, Polyadenylate-binding protein 1 (Homo sapiens, UniProt P11940); test: blockers of PABP interaction with poly(A) – biochemical, fluorescence polarization, […] (AID 2014)
# Streptococcus = test: GAS UMAA2166 growth inhibition – luminescence, BacTiterGlo, counter-screen for streptokinase expression inhibitor project, dose response (AID 1915); format: functional, organism-based;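 also: potency for reduction of bacterial viability or growth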
# [3] = Luminescence Cell-Based Dose Confirmation HTS to Identify Inhibitors of Polyadenylation.; format: functional
# [4] = mRNA 3' processing disruption, beta-gal signal increase – luminescence, S. cerevisiae SKY197-pL101, dose response (AID 2525); format: functional, cell-based
# [5] = tested on: Streptococcus sp. 'group A'; test: Streptococcus pyogenes SK(-)GAS viability under kanamycin – luminescence, BacTiterGlo, confirmation, counter-screen for streptokinase expression inhibitor project, dose response (AID 1900); format: functional, organism-based
# Streptokinase A = molecular target: T2, Streptokinase A (Streptococcus pyogenes serotype M1, UniProt P10520); test: viability-normalized secreted streptokinase activity reduction – plasminogen activation absorbance, OD405, dose response (AID 1914); format: functional, Streptococcus pyogenes M1 GAS;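 also: secreted streptokinase activity via plasminogen activation per viability signal from cell pellet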
# T2 sequence (P10520 whole entry): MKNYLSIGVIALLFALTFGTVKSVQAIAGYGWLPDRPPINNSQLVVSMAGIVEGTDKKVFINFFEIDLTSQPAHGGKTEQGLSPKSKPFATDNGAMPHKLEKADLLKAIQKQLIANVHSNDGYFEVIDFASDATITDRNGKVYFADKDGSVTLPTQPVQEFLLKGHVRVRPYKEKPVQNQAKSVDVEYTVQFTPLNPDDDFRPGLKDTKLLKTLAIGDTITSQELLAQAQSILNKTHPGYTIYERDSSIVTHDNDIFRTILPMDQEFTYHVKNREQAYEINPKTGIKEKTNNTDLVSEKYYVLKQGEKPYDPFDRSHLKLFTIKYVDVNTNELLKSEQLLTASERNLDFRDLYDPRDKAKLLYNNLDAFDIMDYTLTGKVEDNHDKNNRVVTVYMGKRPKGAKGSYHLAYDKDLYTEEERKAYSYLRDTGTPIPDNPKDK
# [6] = molecular target: Multidrug resistance protein CDR1 (Candida albicans, UniProt P43071); test: inhibition of Nile Red efflux via Candida CDR1 – S. cerevisiae AD1-8u, singleplex, Cherry Pick1 hits, dose response (AID 588606); format: functional
# [7] = molecular target: Photoreceptor-specific nuclear receptor (Homo sapiens, UniProt Q9Y5X4); format: functional;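 also: potency for compounds that break the NR2E3 corepressor complex and count as activators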
# [8] = molecular target: Peroxisome proliferator-activated receptor gamma/Nuclear receptor corepressor 2 (Homo sapiens, UniProt P37231+Q9Y618); format: functional
# [9] = molecular target: T1, Polyadenylate-binding protein 1; test: MLLE domain peptide-binding blockers, IC50 – biochemical, fluorescence polarization, FITC-PAM2 peptide, dose response (AID 602259); format: functional; details: read-out: IC50_Mean
# [10] = molecular target: T1, Polyadenylate-binding protein 1; test: MLLE binding blockers, Cy5 peptide tracer – biochemical, fluorescence polarization, Cy5-PAM2 peptide, secondary, miRNA deadenylation inhibitor project, dose response (AID 602260); format: functional; details: read-out: IC50_Mean
# [11] = molecular target: T3, Zinc finger protein mex-5 (Caenorhabditis elegans, UniProt Q9XUB2); test: potency of MEX-5 RNA-binding blockers – biochemical, C. elegans, fluorescence polarization, dose response (AID 1960)
# T3 sequence (Q9XUB2 whole entry): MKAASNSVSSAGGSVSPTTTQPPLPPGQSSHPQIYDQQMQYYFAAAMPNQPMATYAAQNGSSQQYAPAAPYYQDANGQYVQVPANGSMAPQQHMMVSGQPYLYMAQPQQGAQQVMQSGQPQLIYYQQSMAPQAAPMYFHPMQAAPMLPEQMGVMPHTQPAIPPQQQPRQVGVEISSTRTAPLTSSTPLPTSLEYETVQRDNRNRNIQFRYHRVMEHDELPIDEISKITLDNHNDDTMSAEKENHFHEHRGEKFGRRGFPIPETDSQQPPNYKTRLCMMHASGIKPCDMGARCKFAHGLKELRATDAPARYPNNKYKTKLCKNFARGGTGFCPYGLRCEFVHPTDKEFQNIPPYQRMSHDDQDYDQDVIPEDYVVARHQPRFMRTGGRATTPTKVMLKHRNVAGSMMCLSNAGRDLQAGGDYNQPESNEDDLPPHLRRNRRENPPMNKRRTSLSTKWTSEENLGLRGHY
# [12] = molecular target: T4, RNA-binding protein pos-1 (Caenorhabditis elegans, UniProt G5EF15); test: disruptors of C. elegans POS-1 RNA interaction – biochemical, fluorescence polarization, dose response (AID 1964);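 also: purified POS-1 fused to maltose binding protein made in E. coli; potency of compounds blocking POS-1 binding to fluorescent RNA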
# T4 sequence (G5EF15 whole entry): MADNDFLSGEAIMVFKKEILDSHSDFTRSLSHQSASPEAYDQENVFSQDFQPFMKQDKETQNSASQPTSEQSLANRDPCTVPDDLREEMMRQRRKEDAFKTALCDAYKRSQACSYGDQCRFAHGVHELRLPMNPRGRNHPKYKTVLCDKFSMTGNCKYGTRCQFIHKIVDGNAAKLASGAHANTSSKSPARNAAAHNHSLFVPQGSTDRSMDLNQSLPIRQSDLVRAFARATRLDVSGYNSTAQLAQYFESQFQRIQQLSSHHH
# [13] = molecular target: T5, Eukaryotic translation initiation factor 2-alpha kinase 3 (Homo sapiens, UniProt Q9NZJ5); test: Counterscreen assay for PERK inhibitors: Dose response cell-based high throughput screening assay to measure inhibition of PERK at 6 hours. [Related pubchem assays: 1522, 1416 ]; format: functional
# [14] = molecular target: T5, Eukaryotic translation initiation factor 2-alpha kinase 3; test: Dose response cell-based high-throughput screening assay to measure PERK inhibition. [Related pubchem assays: 1416 ]; format: functional
# Caspase-6 = molecular target: T6, Caspase-6 (Homo sapiens, UniProt P55212); test: inhibition of CASP6 peptide cleavage – biochemical, VEID-R110 fluorescence, cherry-pick, dose response (AID 720632)
# T6 sequence (P55212 whole entry): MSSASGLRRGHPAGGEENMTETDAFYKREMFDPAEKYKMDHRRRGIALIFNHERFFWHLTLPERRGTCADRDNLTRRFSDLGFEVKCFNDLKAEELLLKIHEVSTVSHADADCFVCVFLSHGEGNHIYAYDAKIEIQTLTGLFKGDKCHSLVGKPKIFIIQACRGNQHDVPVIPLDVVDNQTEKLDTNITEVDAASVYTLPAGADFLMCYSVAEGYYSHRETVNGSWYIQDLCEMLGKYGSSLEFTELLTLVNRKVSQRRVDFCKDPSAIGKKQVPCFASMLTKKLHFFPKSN
# T1 sequence (P11940 whole entry): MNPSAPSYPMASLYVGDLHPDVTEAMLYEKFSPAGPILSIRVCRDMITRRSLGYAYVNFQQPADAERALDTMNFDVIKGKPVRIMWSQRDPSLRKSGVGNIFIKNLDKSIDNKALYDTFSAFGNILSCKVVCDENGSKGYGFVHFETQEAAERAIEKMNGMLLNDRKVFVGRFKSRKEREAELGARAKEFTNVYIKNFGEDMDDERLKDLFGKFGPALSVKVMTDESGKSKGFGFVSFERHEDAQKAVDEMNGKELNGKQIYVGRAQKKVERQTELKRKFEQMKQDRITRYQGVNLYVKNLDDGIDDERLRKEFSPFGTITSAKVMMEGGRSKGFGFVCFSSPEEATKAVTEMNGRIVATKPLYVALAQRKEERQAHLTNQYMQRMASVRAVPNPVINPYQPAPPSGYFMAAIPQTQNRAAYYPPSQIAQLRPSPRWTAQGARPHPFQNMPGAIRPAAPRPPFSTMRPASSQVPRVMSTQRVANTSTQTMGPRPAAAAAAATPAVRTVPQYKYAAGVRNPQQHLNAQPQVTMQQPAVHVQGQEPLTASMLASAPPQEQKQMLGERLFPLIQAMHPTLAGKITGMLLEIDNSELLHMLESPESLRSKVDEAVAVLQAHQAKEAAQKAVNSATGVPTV
# T5 sequence (Q9NZJ5 whole entry): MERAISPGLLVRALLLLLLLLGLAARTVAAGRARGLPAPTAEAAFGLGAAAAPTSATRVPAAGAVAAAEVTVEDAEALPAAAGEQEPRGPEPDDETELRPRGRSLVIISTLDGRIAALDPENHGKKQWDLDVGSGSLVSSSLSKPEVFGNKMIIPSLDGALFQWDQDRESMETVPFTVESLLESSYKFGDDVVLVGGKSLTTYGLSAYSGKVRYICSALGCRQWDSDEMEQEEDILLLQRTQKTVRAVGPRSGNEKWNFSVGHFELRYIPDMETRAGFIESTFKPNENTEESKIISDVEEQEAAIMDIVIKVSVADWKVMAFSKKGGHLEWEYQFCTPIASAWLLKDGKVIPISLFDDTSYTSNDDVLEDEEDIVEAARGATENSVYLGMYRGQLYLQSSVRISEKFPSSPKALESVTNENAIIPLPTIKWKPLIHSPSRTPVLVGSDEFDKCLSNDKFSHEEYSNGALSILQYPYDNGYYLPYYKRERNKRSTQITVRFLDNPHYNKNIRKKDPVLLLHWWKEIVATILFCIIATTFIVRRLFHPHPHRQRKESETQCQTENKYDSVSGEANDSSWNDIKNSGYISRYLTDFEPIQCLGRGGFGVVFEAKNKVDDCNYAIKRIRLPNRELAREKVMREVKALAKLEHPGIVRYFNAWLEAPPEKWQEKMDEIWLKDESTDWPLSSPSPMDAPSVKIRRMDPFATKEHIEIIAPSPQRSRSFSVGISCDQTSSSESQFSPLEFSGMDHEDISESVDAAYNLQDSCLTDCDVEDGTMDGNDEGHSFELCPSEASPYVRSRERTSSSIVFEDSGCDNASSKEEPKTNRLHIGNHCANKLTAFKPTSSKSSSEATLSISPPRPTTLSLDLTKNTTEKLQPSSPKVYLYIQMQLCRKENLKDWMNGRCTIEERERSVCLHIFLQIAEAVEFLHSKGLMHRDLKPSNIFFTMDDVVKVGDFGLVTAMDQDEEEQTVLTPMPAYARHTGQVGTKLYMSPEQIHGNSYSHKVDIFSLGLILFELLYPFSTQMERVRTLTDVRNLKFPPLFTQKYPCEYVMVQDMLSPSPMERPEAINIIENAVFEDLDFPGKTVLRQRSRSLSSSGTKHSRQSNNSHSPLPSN
# Multidrug resistance protein CDR1, sequence (P43071 whole entry, looked up): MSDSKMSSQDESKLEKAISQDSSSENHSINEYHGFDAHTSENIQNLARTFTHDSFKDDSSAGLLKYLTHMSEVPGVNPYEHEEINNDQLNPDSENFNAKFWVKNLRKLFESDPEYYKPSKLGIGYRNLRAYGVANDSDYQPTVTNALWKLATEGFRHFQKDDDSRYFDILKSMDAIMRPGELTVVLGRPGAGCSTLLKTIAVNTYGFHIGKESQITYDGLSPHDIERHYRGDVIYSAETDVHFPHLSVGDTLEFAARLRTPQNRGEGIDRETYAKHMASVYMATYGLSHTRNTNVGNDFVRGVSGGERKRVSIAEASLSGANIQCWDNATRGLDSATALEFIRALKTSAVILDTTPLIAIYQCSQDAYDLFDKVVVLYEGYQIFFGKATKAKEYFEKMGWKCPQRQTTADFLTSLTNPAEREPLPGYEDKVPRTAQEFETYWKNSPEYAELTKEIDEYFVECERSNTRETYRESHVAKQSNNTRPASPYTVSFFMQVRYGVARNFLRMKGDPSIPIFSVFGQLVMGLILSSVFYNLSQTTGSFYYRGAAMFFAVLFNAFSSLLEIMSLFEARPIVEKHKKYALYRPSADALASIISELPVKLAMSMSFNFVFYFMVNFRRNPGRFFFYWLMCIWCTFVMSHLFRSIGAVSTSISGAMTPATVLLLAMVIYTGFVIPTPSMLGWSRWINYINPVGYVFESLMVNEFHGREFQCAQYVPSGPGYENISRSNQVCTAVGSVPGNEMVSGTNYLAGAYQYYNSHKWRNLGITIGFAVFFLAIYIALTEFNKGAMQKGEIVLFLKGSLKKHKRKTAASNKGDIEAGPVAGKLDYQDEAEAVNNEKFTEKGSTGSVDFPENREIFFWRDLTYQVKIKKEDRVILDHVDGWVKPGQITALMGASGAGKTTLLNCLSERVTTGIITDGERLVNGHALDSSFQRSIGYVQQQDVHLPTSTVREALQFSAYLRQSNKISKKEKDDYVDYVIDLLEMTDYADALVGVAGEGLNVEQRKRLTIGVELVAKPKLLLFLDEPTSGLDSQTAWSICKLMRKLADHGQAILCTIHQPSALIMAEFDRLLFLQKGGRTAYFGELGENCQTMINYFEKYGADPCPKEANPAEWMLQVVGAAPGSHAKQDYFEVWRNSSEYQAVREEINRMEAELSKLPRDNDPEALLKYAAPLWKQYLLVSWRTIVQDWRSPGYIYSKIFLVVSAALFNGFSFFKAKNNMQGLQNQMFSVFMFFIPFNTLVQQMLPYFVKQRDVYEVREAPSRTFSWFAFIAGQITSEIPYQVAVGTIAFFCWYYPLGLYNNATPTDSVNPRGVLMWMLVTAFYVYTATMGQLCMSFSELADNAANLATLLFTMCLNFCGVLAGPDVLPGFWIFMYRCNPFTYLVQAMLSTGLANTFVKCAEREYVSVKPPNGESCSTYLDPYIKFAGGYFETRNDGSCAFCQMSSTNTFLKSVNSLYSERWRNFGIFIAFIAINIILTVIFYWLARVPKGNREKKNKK
# Photoreceptor-specific nuclear receptor, sequence (Q9Y5X4 whole entry): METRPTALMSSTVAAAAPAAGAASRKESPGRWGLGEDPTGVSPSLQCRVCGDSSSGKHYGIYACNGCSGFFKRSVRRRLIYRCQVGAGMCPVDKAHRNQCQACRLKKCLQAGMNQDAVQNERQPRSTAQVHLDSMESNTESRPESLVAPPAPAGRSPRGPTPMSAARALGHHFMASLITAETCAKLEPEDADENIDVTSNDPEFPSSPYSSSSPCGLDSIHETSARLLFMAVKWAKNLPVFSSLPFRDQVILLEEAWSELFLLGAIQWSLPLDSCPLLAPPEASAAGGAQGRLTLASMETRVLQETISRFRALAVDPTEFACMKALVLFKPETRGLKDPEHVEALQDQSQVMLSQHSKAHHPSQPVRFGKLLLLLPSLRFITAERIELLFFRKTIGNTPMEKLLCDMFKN
smiles,measurement,setting,value
COc1cc(C)cc(C(=O)O)c1C1=C(O)C(=O)c2c(O)cccc2C1=O,IC50,[1],5.43 µM (active)
same,IC50,[2],5.41 µM (active)
COc1cc(/C=C2/CC/C(=C/c3ccc(O)c(OC)c3)C2=O)ccc1O,EC50,Streptococcus,76.7 µM (active)
same,EC50,[3],6.57 µM (active)
same,EC50,[4],173 µM (active)
same,EC50,[5],15.8 µM (active)
same,EC50,Streptokinase A,> 150 µM (not active)
same,EC50,[6],27.1 µM (active)
COC(=O)c1cc2n3ccccc3c(C)c(-c3ccccc3)c-2c1C(=O)OC,IC50,[7],0.186 µM (active)
same,IC50,[8],0.196 µM (active)
same,IC50,[9],54.7 µM (inactive)
same,IC50,[10],> 66 µM (inactive)
same,EC50,[11],16.6 µM (active)
same,EC50,[12],23.6 µM (active)
CCOC(=O)c1sc(NC(=O)C2C3C=CC(C3)C2C(=O)O)nc1C (configuration not stated),EC50,[13],> 55.7 µM (not active)
same,EC50,[14],> 55.7 µM (not active)
same,AC50,Caspase-6,11.1 µM (active)
